From US20060275321A1, “Polypeptide antagonists of HIV-1 Tat protein” (Phoenix Pharmaceuticals, Inc., priority 2005, published 2006)
Bridges are numbered along the chain shown (N, C = ends). Where no end group is shown, it is not given here. The star is where a group is joined. Acm = CC(=O)NC*

System: dissociate cultured cortical neurons
Test: Mobilization of intracellular Ca2+ in dissociate cultured cortical neurons (Fura-2 AM fluorescence)
Type: cell-based, rat
Settings: dissociate and cultured cortical neurons of newborn Sprague-Dawley rats, value ± spread
Description: Neurons can be isolated from cerebral cortex according to the protocols for postnatal dissociated nuerons as disclosed for example by Huettner, J. E. and Baughman, R. W., Primary Culture of Identified Neurons From the Visual Cortex of Postnatal Rats, Journal of Neurosciences 6; 3044-3060 (1986); Brewer, G. J., Isolation and Culture of Adult Rat Hippocampal Neurons, Journal of Neuroscience Methods, 71:143-155 (1997); and Brailoiu et al., NAADP Potentiates Neurite Outgrowth, Journal of Biological Chemistry (in press), each hereby incorporated by reference. Newborn Sprague-Dawley rates (about 1 day to about 4 days old) were killed by cervical dislocation. Cerebral cortex was removed and quickly immersed in ice-cold phosphate buffer solution. After removal of meninges, tissue was minced into about 1-millimeter blocks, incubated for about 45 minutes at 37° C. in Hanks balanced salt solution without Ca^2+ and Mg^2+ (Invitrogen, 1600 Faraday Avenue, Carlsbad, Calif. 92008) and supplemented with about 200 ug/mL penicillin, 0.1% EDTA and papain 0.15 mg/mL (Sigma-Aldrich, St. Louis, Mo.). In accordance with the procedure disclosed by Brewer, the tissue can be further dissociated by gentle mechanical trituration. […]

Substance: 30-86 Cys30Acm, Cys34Acm (Cys31-Cys37): HIV-1 Tat residues 30-86, Cys-Acm at 30 and 34, disulfide bridge Cys31-Cys37 (C(Acm)CFHC(Acm)QVCFITKALGISYGRKKRRQRRRAHQNSQTHQASLSKQPTSQPRGDPTGPKE; disulfide 2-8)
- [Ca^2+] response: No Response
